Assay: xn = mol fraction of the nth substance listed
Details: 101 kPa, Liquid

Clc1ccccc1 [chlorobenzene] + CC(C)(C)O
mass density [kg/m3]
Details | 303.15 K | 308.15 K | 313.15 K | 318.15 K | 323.15 K
x2 = 0 | 1095.64 | 1090.23 | 1084.82 | 1079.42 | 1073.97
x2 = 0.0514 | 1078.9 | 1073.42 | 1067.94 | 1062.44 | 1056.94
x2 = 0.1001 | 1063.67 | 1058.13 | 1052.58 | 1047.01 | 1041.43
x2 = 0.1498 | 1048.32 | 1042.74 | 1037.14 | 1031.52 | 1025.89
x2 = 0.199 | 1033.1 | 1027.51 | 1021.89 | 1016.24 | 1010.56
x2 = 0.2505 | 1017.18 | 1011.59 | 1005.96 | 1000.3 | 994.615
x2 = 0.3 | 1001.8 | 996.225 | 990.603 | 984.94 | 979.276
x2 = 0.351 | 985.908 | 980.337 | 974.721 | 969.053 | 963.346
x2 = 0.3707 | 979.707 | 974.152 | 968.545 | 962.885 | 957.187
x2 = 0.3997 | 970.62 | 965.075 | 959.477 | 953.823 | 948.132
x2 = 0.45 | 954.724 | 949.206 | 943.631 | 937.997 | 932.311
x2 = 0.5 | 938.79 | 933.303 | 927.755 | 922.142 | 916.464
x2 = 0.5499 | 922.845 | 917.39 | 911.872 | 906.286 | 900.633
x2 = 0.6003 | 906.668 | 901.248 | 895.76 | 890.201 | 884.578
x2 = 0.6499 | 890.559 | 885.172 | 879.716 | 874.189 | 868.592
x2 = 0.7002 | 874.261 | 868.904 | 863.477 | 857.976 | 852.408
x2 = 0.7482 | 858.49 | 853.167 | 847.772 | 842.3 | 836.757
x2 = 0.7998 | 841.567 | 836.267 | 830.896 | 825.45 | 819.931
x2 = 0.8498 | 825.04 | 819.768 | 814.423 | 809 | 803.512
x2 = 0.9004 | 808.338 | 803.082 | 797.754 | 792.35 | 786.87

Clc1ccccc1 [chlorobenzene] + CCC(C)O
mass density [kg/m3]
Details | 288.15 K | 293.15 K | 298.15 K | 303.15 K | 308.15 K | 313.15 K
x2 = 0 | 1111.81 | 1106.43 | 1101.04 | 1095.64 | 1090.23 | 1084.82
x2 = 0.0496 | 1097.45 | 1092.02 | 1086.59 | 1081.16 | 1075.72 | 1070.28
x2 = 0.1003 | 1083.13 | 1077.7 | 1072.25 | 1066.79 | 1061.32 | 1055.83
x2 = 0.1501 | 1069.16 | 1063.74 | 1058.31 | 1052.85 | 1047.37 | 1041.88
x2 = 0.2 | 1055.05 | 1049.66 | 1044.24 | 1038.8 | 1033.33 | 1027.86
x2 = 0.2502 | 1040.78 | 1035.43 | 1030.05 | 1024.63 | 1019.19 | 1013.73
x2 = 0.3007 | 1026.39 | 1021.07 | 1015.73 | 1010.35 | 1004.94 | 999.501
x2 = 0.3497 | 1012.26 | 1006.99 | 1001.69 | 996.346 | 990.966 | 985.56
x2 = 0.3999 | 997.723 | 992.501 | 987.245 | 981.952 | 976.612 | 971.251
x2 = 0.4499 | 983.091 | 977.922 | 972.717 | 967.468 | 962.174 | 956.834
x2 = 0.5 | 968.364 | 963.258 | 958.109 | 952.917 | 947.675 | 942.399
x2 = 0.5498 | 953.525 | 948.484 | 943.398 | 938.263 | 933.079 | 927.858
x2 = 0.5999 | 938.418 | 933.448 | 928.431 | 923.362 | 918.237 | 913.072
x2 = 0.6499 | 923.235 | 918.341 | 913.397 | 908.397 | 903.335 | 898.213
x2 = 0.7 | 907.848 | 903.04 | 898.18 | 893.259 | 888.276 | 883.238
x2 = 0.75 | 892.266 | 887.557 | 882.791 | 877.959 | 873.061 | 868.109
x2 = 0.8 | 876.537 | 871.933 | 867.265 | 862.532 | 857.722 | 852.839
x2 = 0.8498 | 860.576 | 856.092 | 851.542 | 846.918 | 842.221 | 837.46
x2 = 0.8997 | 844.324 | 839.965 | 835.544 | 831.044 | 826.464 | 821.827
x2 = 0.9502 | 827.634 | 823.427 | 819.146 | 814.788 | 810.337 | 805.821

Clc1ccccc1 [chlorobenzene] + CCCCCO
mass density [kg/m3]
Details | 288.15 K | 293.15 K | 298.15 K | 303.15 K | 308.15 K | 313.15 K
x2 = 0 | 1111.81 | 1106.43 | 1101.04 | 1095.64 | 1090.23 | 1084.82
x2 = 0.0495 | 1096.2 | 1090.85 | 1085.48 | 1080.11 | 1074.71 | 1069.32
x2 = 0.1004 | 1080.5 | 1075.21 | 1069.9 | 1064.57 | 1059.22 | 1053.86
x2 = 0.1503 | 1065.26 | 1060.04 | 1054.8 | 1049.54 | 1044.25 | 1038.95
x2 = 0.2001 | 1050.21 | 1045.07 | 1039.9 | 1034.71 | 1029.5 | 1024.27
x2 = 0.2498 | 1035.28 | 1030.21 | 1025.13 | 1020.02 | 1014.88 | 1009.72
x2 = 0.2998 | 1020.4 | 1015.41 | 1010.4 | 1005.37 | 1000.32 | 995.245
x2 = 0.3497 | 1005.6 | 1000.69 | 995.77 | 990.822 | 985.847 | 980.857
x2 = 0.3992 | 991.011 | 986.186 | 981.346 | 976.483 | 971.589 | 966.679
x2 = 0.4498 | 976.171 | 971.436 | 966.685 | 961.906 | 957.097 | 952.274
x2 = 0.5 | 961.565 | 956.92 | 952.254 | 947.565 | 942.839 | 938.086
x2 = 0.5497 | 947.132 | 942.578 | 938.003 | 933.402 | 928.768 | 924.119
x2 = 0.6 | 932.622 | 928.159 | 923.676 | 919.168 | 914.627 | 910.077
x2 = 0.65 | 918.243 | 913.875 | 909.486 | 905.07 | 900.622 | 896.149
x2 = 0.6998 | 903.925 | 899.658 | 895.367 | 891.05 | 886.702 | 882.307
x2 = 0.7499 | 889.607 | 885.436 | 881.246 | 877.028 | 872.777 | 868.496
x2 = 0.8001 | 875.288 | 871.223 | 867.134 | 863.017 | 858.866 | 854.684
x2 = 0.8496 | 861.143 | 857.181 | 853.196 | 849.186 | 845.143 | 841.079
x2 = 0.9002 | 846.722 | 842.865 | 838.986 | 835.082 | 831.149 | 827.194
x2 = 0.95 | 832.515 | 828.762 | 824.99 | 821.195 | 817.369 | 813.521
